According to US12258583B2, “Embryonic erythroblast-containing cell population and method for producing same, cell culture composition, and compound test method” (SUMITOMO CHEMICAL COMPANY, LIMITED, priority 2018, dated 2025):

Legend:
[1] = test system: embryonic erythroblast-containing cell population produced from human iPS cells; assay: Compound test using embryonic erythroblast-containing cell population produced from human iPS cells (heme, PPIX by LC-MS, viable cell count, viability); assay type: cell-based; conditions: DHA 0.5 or 1 μM, SA 10 or 30 μM, Day 18 (Day 8 after start of step (C)); for viable cell count: FIG. 12C; for viability of cells: FIG. 12D
Protocol: The procedure illustrated in FIG. 11 was used to conduct a compound test using an embryonic erythroblast-containing cell population produced from human iPS cells. Differentiation of human iPS cells was induced by substantially the same procedure as in Example 1 to produce an embryonic erythroblast-containing cell population at Day 10 after the start of suspension culture (step (A)) (Step (A) and Step (B)). The cells were centrifuged for 5 min at 1000 rpm in a centrifuge (CF8DL; manufactured by Koki Holdings Co., Ltd.) to remove the supernatant. Next, STEMdiff+B medium was added to the precipitate. Subsequently, the cells were suspended and seeded at 2×10^5 cells in 1.5 mL of medium per well of a […] 6-well plate (manufactured by Corning, Inc.). Then, suspension culture was started (step (C) was started). To the medium at that time was added, as a test compound, dihydroartemisinin (hereinafter, referred to as “DHA”) (at a final concentration of 0.5 μM or 1 μM) or succinylacetone (hereinafter, referred to as “SA”) (at a final concentration of 10 μM or 30 μM). As a solvent control, DMSO was added.
At Day 18 (Day 8 after the start of step (C)) after the start of suspension culture (step (A)), the resulting cell population-containing medium was collected from the 6-well plate. Next, 0.4×10^5 cells to 1×10^5 cells were pipetted into an Eppendorf tube, and centrifuged for 3 min at 7500 rpm in a centrifuge (centrifuge 5424; manufactured by Eppendorf, Inc.) to remove the supernatant and give a cell pellet. The concentration of heme or protoporphyrin IX (hereinafter, referred to as “PPIX”) included in this cell pellet was quantified using liquid chromatography-mass spectrometry (LC-MS) (step (D)). A change in the concentration of heme or PPIX by addition of a test compound was examined to be able to evaluate how the test compound affected the heme biosynthesis pathway. In addition, the number of cells collected after the culture was counted to determine viability.
The concentration of heme or PPIX was represented in weight per 10^6 cells (ng/10^6 cells). DHA or SA, which is known to inhibit heme synthesis, caused a decrease in the heme concentration at Day 18 (Day 8 after the start of step (C)) after the start of suspension culture (step (A)) when compared to a solvent control (FIG. 12A). […] A hypothesis that DHA can induce anemia by inhibiting the most downstream ferrochelatase has been proposed (Clark et al. (2018) Birth Defects Research 110: 553-578). […] In addition, DHA or SA decreased the viable cell count and viability of cells included in the cell population (FIGS. 12C and D). In Example 1, the cell population included embryonic erythroblasts at a high percentage.

REL cells = assay: Differentiation culture of REL cells with inducer, β-globin gene family expression by real-time PCR; assay type: cell-based, rat; conditions: 1 mM HMBA
Protocol: (§1) The percentage of expression of the β-globin gene family expressed in cells of the above cell population was checked by real-time PCR. The floating cell population-containing medium at Day 10, 14, or 18 after the start of suspension culture (step (1)) was centrifuged for 5 min at 1000 rpm in a centrifuge (CF8DL; manufactured by Koki Holdings Co., Ltd.) to remove the supernatant. The resulting cells were washed with PBS (manufactured by Thermo Fisher Scientific, Inc.), centrifuged for 3 min at 7500 rpm in a centrifuge (centrifuge 5424; manufactured by Eppendorf, Inc.), and then subjected to total RNA extraction from the cells using an RNeasy Micro Kit (manufactured by QIAGEN, Inc.). The resulting total RNA was subjected to reverse transcription using SuperScript III (manufactured by Thermo Fisher Scientific, Inc.). Subsequently, the resulting cDNA was used as a template to perform real-time PCR by using TaqMan probes (manufactured by Thermo Fisher Scientific, Inc.) and a TaqMan Fast Advanced Master Mix (manufactured by Thermo Fisher Scientific, Inc.) in a 96-well plate under Fast PCR conditions according to the instruction in the package insert. The TaqMan probes used were human probes designated in Table 2.
(§2) The gene product containing a TaqMan probe target sequence for each member of the β-globin gene family, namely ε-globin, γ-globin, or β-globin, was used to draw a standard curve. Then, the mRNA copy number for each β-globin gene family member expressed was quantified. The value obtained by dividing the copy number for each β-globin gene family member expressed by the total β-globin gene family copy number was shown as the percentage of expression of each β-globin gene family member. The production of embryonic erythroblast-containing cell population and the analysis by real-time PCR were independently triplicated to calculate the average and the standard error.
REL cells, rat erythroleukemia cells, (obtained from Institute of Molecular Genetics and Genetic Engineering (Prof. Popovic Serbia)) were used as other hematopoietic cells to check a change in expression of ε-globin gene. REL cells were cultured and maintained as follows. RPMI medium (Roswell Park Memorial Institute 1640; manufactured by Thermo Fisher Scientific, Inc.) containing […] FBS (manufactured by Corning, Inc.) and 1% penicillin-streptomycin (manufactured by Sigma-Aldrich Co. LLC) (hereinafter, referred to as “REL medium”) was used, and the cells were subjected to suspension culture on a low-adherent 6-cm dish (manufactured by Sumitomo Bakelite Co., Ltd.). The floating cell-containing medium was collected once every 2 days, and centrifuged for 5 min at 1000 rpm in a centrifuge (SCT5BA; manufactured by Koki Holdings Co., Ltd.) to remove the supernatant. The REL cells were suspended in 5 mL of REL medium and seeded at 5×10^5 cells per dish, and cultured under conditions at 37° C. and 5% CO2.
An inducer (hexamethylene bisacetamide: HMBA) was added to REL cells to check a change in expression of ε-globin over time. For differentiation culture of REL cells, the medium used was REL medium containing HMBA (at a final concentration of 1 mM; manufactured by Sigma-Aldrich Co. LLC.). The REL cells were suspended in 5 mL of the above medium and seeded at 5×10^5 cells per low-adherent 6-cm dish (manufactured by Sumitomo Bakelite Co., Ltd.), and then cultured under conditions at 37° C. and 5% CO2. The floating cell-containing medium was collected at Day 0, 2, 4, or 8 after the start of differentiation culture, and centrifuged for 5 min at 1000 rpm in a centrifuge (SCT5BA; manufactured by Koki Holdings Co., Ltd.) to remove the supernatant.
Like the evaluation protocol by real-time PCR in Example 1, the percentage of expression of each β-globin gene family member expressed in cells was determined by real-time PCR. […] Almost all of the β-globin gene family were an adult erythroblast marker β-globin gene under any of the conditions.

[2] = molecular target: T1, aminolevulinic acid dehydrogenase (Homo sapiens, UniProt P13716); conditions: Sassa et al. (1983); cited from earlier work
T1 sequence (P13716 1-330): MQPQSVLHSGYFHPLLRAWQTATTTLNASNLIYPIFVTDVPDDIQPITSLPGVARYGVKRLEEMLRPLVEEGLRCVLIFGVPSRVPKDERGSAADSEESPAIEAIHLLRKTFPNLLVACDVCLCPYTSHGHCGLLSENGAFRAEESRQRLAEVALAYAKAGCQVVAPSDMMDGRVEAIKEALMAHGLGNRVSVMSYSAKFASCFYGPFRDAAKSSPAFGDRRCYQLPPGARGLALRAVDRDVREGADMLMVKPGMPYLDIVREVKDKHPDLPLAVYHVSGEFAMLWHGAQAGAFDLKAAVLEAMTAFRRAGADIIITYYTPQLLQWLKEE

K562 cells [3] = assay: Differentiation culture of K562 cells with inducer, β-globin gene family expression by real-time PCR; assay type: cell-based, human; conditions: 1 mM sodium butyrate
Protocol: as §1, §2
Human chronic myeloid leukemia-derived cell line K562 cells (obtained from Health Science Research Resources Bank) were used as other hematopoietic cells to check expression of ε-globin. K562 cells were cultured and maintained as follows. RPMI medium (Roswell Park Memorial Institute 1640; manufactured by Thermo Fisher Scientific, Inc.) containing 10% FBS (manufactured by Corning, Inc.) and 1% penicillin-streptomycin (manufactured by Sigma-Aldrich Co. LLC) (hereinafter, referred to as “K562 medium”) was used, and the cells were subjected to suspension culture on a low-adherent 6-cm dish (manufactured by Sumitomo Bakelite Co., Ltd.). The floating cell-containing medium was collected once every 7 days, and centrifuged for 5 min at 1000 rpm in a centrifuge (SCTSBA; manufactured by Koki Holdings Co., Ltd.) to remove the supernatant. The K562 cells were suspended in 5 mL of K562 medium and seeded at 5×10^5 cells per dish, and cultured under conditions at 37° C. and 5% CO2.
It has been known that addition of an inducer (sodium butyrate) causes an increase in the expression of εs-globin in K562 cells. Thus, a change in expression of ε-globin after addition of sodium butyrate was checked over time. For differentiation culture of K562 cells, K562 medium containing 1 mM sodium butyrate (manufactured by Sigma-Aldrich Co. LLC) was used. The cells were suspended in 5 mL of the above medium and seeded at 5×10^5 cells per low-adherent 6-cm dish, and cultured under conditions at 37° C. and 5% CO2. The floating cell-containing medium was collected at Day 0, 2, 4, or 8 after the start of differentiation culture, and centrifuged for 5 min at 1000 rpm in a centrifuge (SCTSBA; manufactured by Koki Holdings Co., Ltd.) to remove the supernatant.
Like the evaluation protocol by real-time PCR in Example 1, the percentage of expression of each β-globin gene family member expressed in cells was determined by real-time PCR. […] About 30% or less of the β-globin gene family were an embryonic erythroblast marker ε-globin gene under any of the conditions.

K562 cells [4] = conditions: known from the art; cited from earlier work
[5] = Day 2 of differentiation culture
[6] = Day 4 of differentiation culture
[7] = Day 8 of differentiation culture

C[C@H]1[C@@H](O)O[C@@H]2O[C@@]3(C)CC[C@H]4[C@H](C)CC[C@@H]1[C@@]24OO3 [DHA, dihydroartemisinin]
viable cell count [1]: decreased
viability of cells [1]: decreased

CC(=O)NCCCCCCNC(C)=O [HMBA, hexamethylene bisacetamide]
Relative expression level of β-Globin (Hbb) in the β-globin gene family (REL cells; [5]): 100 ± 0.0%
Relative expression level of γ-Globin (Hbg1) in the β-globin gene family (REL cells; [5]): 0 ± 0.0%
Relative expression level of ε-Globin (Hbe1) in the β-globin gene family (REL cells; [5]): 0 ± 0.0%
Relative expression level of β-Globin (Hbb) in the β-globin gene family (REL cells; [6]): 100 ± 0.0%
Relative expression level of γ-Globin (Hbg1) in the β-globin gene family (REL cells; [6]): 0 ± 0.0%
Relative expression level of ε-Globin (Hbe1) in the β-globin gene family (REL cells; [6]): 0 ± 0.0%
Relative expression level of β-Globin (Hbb) in the β-globin gene family (REL cells; [7]): 99 ± 0.2%
Relative expression level of γ-Globin (Hbg1) in the β-globin gene family (REL cells; [7]): 1 ± 0.1%
Relative expression level of ε-Globin (Hbe1) in the β-globin gene family (REL cells; [7]): 0 ± 0.0%

CC(=O)CC(=O)CCC(=O)O [SA, succinylacetone]
inhibition of aminolevulinic acid dehydrogenase, upstream in the heme biosynthesis pathway [2]: inhibits
viable cell count [1]: decreased
viability of cells [1]: decreased
heme concentration compared to a solvent control ([1]; LC-MS, ng/10^6 cells, FIG. 12A): decrease
PPIX (protoporphyrin IX) concentration ([1]; LC-MS, ng/10^6 cells, FIG. 12B): did not largely affect

CCCC(=O)[O-].[Na+] [sodium butyrate]
Relative expression level of β-Globin (HBB) in the β-globin gene family (K562 cells [3]; [5]): 0 ± 0.0%
Relative expression level of γ-Globin (HBG2/1) in the β-globin gene family (K562 cells [3]; [5]): 75 ± 1.6%
Relative expression level of ε-Globin (HBE1) in the β-globin gene family (K562 cells [3]; [5]): 25 ± 1.6%
Relative expression level of β-Globin (HBB) in the β-globin gene family (K562 cells [3]; [6]): 0 ± 0.0%
Relative expression level of γ-Globin (HBG2/1) in the β-globin gene family (K562 cells [3]; [6]): 73 ± 1.3%
Relative expression level of ε-Globin (HBE1) in the β-globin gene family (K562 cells [3]; [6]): 27 ± 1.3%
Relative expression level of β-Globin (HBB) in the β-globin gene family (K562 cells [3]; [7]): 0 ± 0.0%
Relative expression level of γ-Globin (HBG2/1) in the β-globin gene family (K562 cells [3]; [7]): 70 ± 1.9%
Relative expression level of ε-Globin (HBE1) in the β-globin gene family (K562 cells [3]; [7]): 30 ± 1.9%
expression of ε-globin in K562 cells after addition of inducer (K562 cells [4]): increase
